The record followed here is patent US20210100777A1, “HEAT SHOCK PROTEIN (HSP) INHIBITION AND MONITORING EFFECTIVENESS THEREOF” (H. LEE MOFFITT CANCER CENTER AND RESEARCH INSTITUTE, INC., priority 2013, published 2021).

In experiment [1] the test system is BIM, Mcl-1 and BMF mRNA in vemurafenib-resistant melanoma cell lines. Put plainly: Quantitative real-time PCR. The conditions noted are these: M229R; 3 μM, 48 hours. A general note: Quantitative PCR measures a nucleic acid by following its amplification.
A further experiment concerns WM39. Put plainly: Growth inhibition, MTT assay. Particulars: WM39 (amplification of cyclin D1), 72 hours. It counts as cell-based. The procedure: (§1) Growth inhibition. Cells were plated at a density of 2.5×10^4 cells per ml and left to grow overnight before being treated with increasing concentrations of vemurafenib or XL888. After 72 hours, the levels of growth inhibition were examined using the MTT assay (Smalley et al., Br. J. Cancer 96:445-9 (2007)). […] Vemurafenib and XL888 were dissolved in 100% DMSO and stored at −20° C. as a 10 mM solution.
(§2) Statistical analysis of GI50 values. Triplicate experiments were performed for each cell line under each drug treatment. To estimate the IC50 values for each cell line for each treatment, a 4-parameter Hill equation was used to model the nonlinear sigmoid relationship between the drug concentration and % cell survival. Briefly,
(§3) where x is the drug concentration, y is the % survival, ε is the error term. The four parameters in the model to estimate are: 1) the control-level effect (E); 2) the background-level effect (B); 3) the median effect concentration (GI50); and 4) the strength of the inhibition (m). The constraint of non-negative minimum background effect (B) is imposed so the model is biologically meaningful. Levenberg-Marquardt algorithm for nonlinear least squares was used to fit the model and estimate all four parameters for each cell line under each treatment. Estimated concentration at 50% cell survival, i.e., IC50, is estimated using the plugged-in parameters after model fitting. Note that when the control and background effects are 100% and 0%, respectively, the estimated GI50 and IC50 values would be identical. To compare the estimated IC50 values between the resistance and naïve paired of cell lines, after log transformation, a paired t-test was performed for each drug.
On the technique in general: Formazan colour is commonly taken as a measure of viable cells.

Another experiment has as its system RPMI 7951. Kind of experiment: Growth inhibition, MTT assay. It counts as cell-based. The conditions noted are these: Homo sapiens, RPMI 7951 (overexpression of COT), 72 hours. The procedure: as §1, §2, §3
In experiment [2] the test system is matched pairs of vemurafenib naïve and resistant melanoma cell lines and melanoma cell lines with intrinsic resistance. Put plainly: Growth inhibition, MTT assay. It counts as cell-based. The conditions noted are these: M229/M229R, M249/M249R, WM164/WM164R, 1205Lu/1205LuR; paired t-test. How it is done:
as §1, §2, §3

SMILES strings stand for the structures. pIC50: −log10 of the molar value. A value given as a limit tells only on which side of the number the result lay.

On to `Cn1cnc2c(F)c(Nc3ccc(Br)cc3Cl)c(C(=O)NOCCO)cc21` [MEK inhibitor], for which the BMF expression result in experiment [1] was “robust induction of BMF expression”.
On to `CCCS(=O)(=O)Nc1ccc(F)c(C(=O)c2c[nH]c3ncc(-c4ccc(Cl)cc4)cc23)c1F` [vemurafenib, N-(3-{[5-(4-chlorophenyl)-1H-pyrrolo[2,3-b]pyridin-3-yl]carbonyl}-2,4-difluorophenyl)propane-1-sulfonamide], for which the pIC50 with WM39 and with RPMI 7951 was less than 5.52 each time. For the same compound, the “difference in growth inhibition / IC50 between naïve and resistant pairs of cell lines” value in experiment [2] is “statistically significant difference in the extent of growth inhibition”.
